From ChEMBL document CHEMBL5230113, “2-substituted benzothiazoles as antiproliferative agents: Novel insights on structure-activity relationships” (Eur J Med Chem, 2020)
≈ marks a conversion by molar mass, not a printed value. Each block holds one compound with its values, some of them ahead of it.

Legend:
[1] = system: HepG2; experiment: Cytotoxicity against human HepG2 cells assessed as inhibition of cell growth; assay type: functional, cell-based; details: hepg2
[2] = system: MCF7; experiment: Cytotoxicity against human MCF7 cells assessed as inhibition of cell growth; assay type: functional, cell-based
[3] = system: SK-HEP1; experiment: Cytotoxicity against human SK-HEP1 cells assessed as cell growth inhibition; assay type: functional
[4] = system: MDA-MB-231; experiment: Cytotoxicity against human MDA-MB-231 cells assessed as cell growth inhibition; assay type: functional, cell-based
[5] = system: NUGC-3; experiment: Cytotoxicity against human NUGC-3 cells assessed as cell growth inhibition; assay type: functional
[6] = system: HeLa; experiment: Antiproliferative activity against human HeLa cells assessed as cell growth inhibition; assay type: functional, cell-based
[7] = Cytotoxicity against human SPCA1 cells assessed as inhibition of cell growth; assay type: functional, cell-based
[8] = system: SW-620; experiment: Cytotoxicity against human SW620 cells assessed as inhibition of cell growth; assay type: functional, cell-based
[9] = system: PC-3; experiment: Cytotoxicity against human PC-3 cells assessed as inhibition of cell growth; assay type: functional, cell-based
[10] = system: NCI-H226; experiment: Antiproliferative activity against human NCI-H226 cells assessed as inhibition of cell growth; assay type: functional, cell-based
[11] = system: SK-N-SH; experiment: Antiproliferative activity against human SK-N-SH cells assessed as inhibition of cell growth; assay type: functional, cell-based
[12] = system: HT-29; experiment: Antiproliferative activity against human HT-29 cells assessed as inhibition of cell growth; assay type: functional, cell-based
[13] = system: MKN-45; experiment: Antiproliferative activity against human MKN-45 cells assessed as inhibition of cell growth; assay type: functional, cell-based
[14] = system: MDA-MB-231; experiment: Potency index, ratio of PAC-1 IC50 to test compound IC50 for antiproliferative activity against human MDA-MB-231 cells assessed as inhibition of cell growth; assay type: functional; details: pooled result: one value given for 5 cell lines, strains, targets or settings
[15] = Activation of procaspase-3 (unknown origin); set-up: species or system Homo sapiens
[16] = system: A549; experiment: Antiproliferative activity against human A549 cells assessed as cell growth inhibition; assay type: functional, cell-based
[17] = system: HCT-116; experiment: Cytotoxicity against human HCT-116 cells assessed as inhibition of cell growth; assay type: functional, cell-based
[18] = target: Aryl hydrocarbon receptor (Homo sapiens, UniProt P35869); experiment: Binding affinity to AhR (unknown origin)
Sequence of Aryl hydrocarbon receptor (P35869 whole entry): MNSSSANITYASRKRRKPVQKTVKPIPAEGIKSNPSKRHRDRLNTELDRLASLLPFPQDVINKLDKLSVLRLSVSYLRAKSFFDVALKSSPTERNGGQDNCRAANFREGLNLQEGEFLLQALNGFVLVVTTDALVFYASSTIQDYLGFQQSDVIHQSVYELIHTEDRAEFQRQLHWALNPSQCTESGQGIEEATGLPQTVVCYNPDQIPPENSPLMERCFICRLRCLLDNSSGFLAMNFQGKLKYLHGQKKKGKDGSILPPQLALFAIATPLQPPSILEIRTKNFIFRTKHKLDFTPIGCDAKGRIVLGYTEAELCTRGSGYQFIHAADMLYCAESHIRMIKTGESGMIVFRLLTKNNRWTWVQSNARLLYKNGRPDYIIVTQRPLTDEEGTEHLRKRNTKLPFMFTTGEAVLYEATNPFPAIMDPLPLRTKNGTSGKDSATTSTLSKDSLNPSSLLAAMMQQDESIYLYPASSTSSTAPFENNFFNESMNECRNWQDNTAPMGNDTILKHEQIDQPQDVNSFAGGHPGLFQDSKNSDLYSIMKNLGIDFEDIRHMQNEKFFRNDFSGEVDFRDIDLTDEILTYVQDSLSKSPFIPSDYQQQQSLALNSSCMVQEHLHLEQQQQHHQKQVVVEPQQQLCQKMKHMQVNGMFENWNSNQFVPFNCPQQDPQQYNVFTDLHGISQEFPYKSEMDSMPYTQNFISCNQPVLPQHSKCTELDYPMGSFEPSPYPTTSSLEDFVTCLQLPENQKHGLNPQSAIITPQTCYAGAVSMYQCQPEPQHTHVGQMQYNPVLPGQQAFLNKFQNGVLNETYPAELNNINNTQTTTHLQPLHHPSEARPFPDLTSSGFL

[19] = target: Histone deacetylase 1 (Homo sapiens, UniProt Q13547); experiment: Inhibition of HDAC1 (unknown origin)
Sequence of Histone deacetylase 1 (Q13547 whole entry): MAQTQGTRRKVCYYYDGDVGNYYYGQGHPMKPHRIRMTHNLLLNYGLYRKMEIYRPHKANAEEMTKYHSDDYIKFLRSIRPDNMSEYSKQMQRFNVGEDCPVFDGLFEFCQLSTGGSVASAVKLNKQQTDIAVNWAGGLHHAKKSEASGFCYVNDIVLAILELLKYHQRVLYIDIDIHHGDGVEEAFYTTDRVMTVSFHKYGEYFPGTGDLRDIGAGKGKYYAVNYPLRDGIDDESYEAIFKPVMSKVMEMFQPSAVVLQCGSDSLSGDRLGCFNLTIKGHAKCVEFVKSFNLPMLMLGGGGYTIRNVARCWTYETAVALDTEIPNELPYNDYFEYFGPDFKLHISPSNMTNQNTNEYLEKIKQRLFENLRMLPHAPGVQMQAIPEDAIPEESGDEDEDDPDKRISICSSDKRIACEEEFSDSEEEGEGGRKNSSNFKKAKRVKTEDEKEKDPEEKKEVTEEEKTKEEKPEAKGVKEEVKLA

[20] = system: HCC4017; experiment: Cytotoxicity against human HCC4017 cells assessed as cell growth inhibition; assay type: functional, cell-based
[21] = Cytotoxicity against human HCC4018 cells assessed as cell growth inhibition; assay type: functional, cell-based
[22] = target: Carbonic anhydrase 9 (Homo sapiens, UniProt Q16790); experiment: Inhibition of CA9 (unknown origin)
[23] = system: K562; experiment: Cytotoxicity against human K562 cells; assay type: functional
[24] = system: KM12; experiment: Cytotoxicity against human KM12 cells assessed as cell growth inhibition; assay type: functional
[25] = target: Angiopoietin-1 receptor (Homo sapiens, UniProt Q02763); experiment: Inhibition of Tie2 (unknown origin)
Sequence of Angiopoietin-1 receptor (Q02763 whole entry): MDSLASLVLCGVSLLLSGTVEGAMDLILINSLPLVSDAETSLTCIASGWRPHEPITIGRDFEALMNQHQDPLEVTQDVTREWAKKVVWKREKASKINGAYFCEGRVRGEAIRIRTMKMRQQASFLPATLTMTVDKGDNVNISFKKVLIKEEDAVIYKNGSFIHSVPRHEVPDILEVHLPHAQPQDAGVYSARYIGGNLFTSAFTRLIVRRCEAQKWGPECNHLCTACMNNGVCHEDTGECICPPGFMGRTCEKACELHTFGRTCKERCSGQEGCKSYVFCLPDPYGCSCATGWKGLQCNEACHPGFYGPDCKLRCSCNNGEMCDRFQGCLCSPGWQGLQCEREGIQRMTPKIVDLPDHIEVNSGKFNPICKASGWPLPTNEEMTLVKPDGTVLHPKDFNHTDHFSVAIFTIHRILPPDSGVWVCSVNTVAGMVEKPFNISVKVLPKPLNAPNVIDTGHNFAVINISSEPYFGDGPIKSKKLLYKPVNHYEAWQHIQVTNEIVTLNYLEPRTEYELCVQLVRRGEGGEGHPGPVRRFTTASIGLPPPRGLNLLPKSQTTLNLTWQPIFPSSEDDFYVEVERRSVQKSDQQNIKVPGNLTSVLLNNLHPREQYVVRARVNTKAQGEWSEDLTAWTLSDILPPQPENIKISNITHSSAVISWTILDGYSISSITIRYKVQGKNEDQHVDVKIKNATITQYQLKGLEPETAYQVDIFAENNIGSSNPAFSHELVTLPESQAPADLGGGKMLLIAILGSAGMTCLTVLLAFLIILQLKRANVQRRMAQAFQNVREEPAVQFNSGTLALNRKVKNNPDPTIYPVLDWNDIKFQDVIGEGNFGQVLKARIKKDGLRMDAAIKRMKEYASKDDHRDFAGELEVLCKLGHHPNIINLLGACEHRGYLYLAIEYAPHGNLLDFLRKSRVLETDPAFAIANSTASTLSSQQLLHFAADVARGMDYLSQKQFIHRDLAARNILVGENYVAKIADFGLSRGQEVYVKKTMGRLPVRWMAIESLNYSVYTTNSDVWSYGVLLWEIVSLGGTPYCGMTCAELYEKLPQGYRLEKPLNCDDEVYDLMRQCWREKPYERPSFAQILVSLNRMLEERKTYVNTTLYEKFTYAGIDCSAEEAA

[26] = system: C6; experiment: Cytotoxicity against rat C6 cells assessed as inhibition of cell growth; assay type: functional, cell-based

SMILES: Cc1ccc(Nn2c(SCC(=O)Nc3nc4ccc(Cl)cc4s3)nc(C)c2C)cc1
IC50 [1]: 29.3 µg/mL (≈ 64 µM)

SMILES: Nc1ccc(-c2nc3ccccc3s2)cc1
IC50 [2]: 0.3 nM

SMILES: Cc1cc(C)c2sc(NC(=O)c3ccc(C#N)cc3)nc2c1
GI50 [3]: 290 nM
GI50 [4]: 290 nM
GI50 [5]: 290 nM

IC50 [6]: 5130 nM
SMILES: O=C(CSc1nc2ccc(NC(=O)CCl)cc2s1)NCc1ccccc1
IC50 [7]: 3890 nM
IC50 [8]: 5120 nM
IC50 [9]: 6580 nM

IC50 [10]: 240 nM
IC50 [11]: 240 nM
IC50 [12]: 240 nM
IC50 [13]: 240 nM
EC50 [15]: 310 nM
SMILES: CN(C)Cc1ccc2nc(NC(=O)N/N=C/c3ccc(OCc4ccc(C(F)(F)F)cc4)cc3O)sc2c1
IC50 [4]: 240 nM
Ratio IC50 [14]: 4.24

SMILES: O=C(CN1CCCCC1)Nc1ccc(-c2nc3ccccc3s2)cc1
IC50 [2]: 10 nM
IC50 [4]: 8 nM

SMILES: COc1cccc2sc(NC(=O)c3ccc(C)cc3)nc12
GI50 [3]: 860 nM
GI50 [4]: 860 nM
GI50 [5]: 860 nM

GI50 [16]: 200 nM
GI50 [6]: 200 nM
SMILES: COc1cccc(-n2cc(CNc3ccc(-c4nc5ccccc5s4)cc3)nn2)c1
GI50 [4]: 200 nM

GI50 [16]: 200 nM
GI50 [6]: 200 nM
SMILES: O=C(CN1CCN(c2ccccc2)CC1)Nc1ccc(-c2nc3ccccc3s2)cc1
GI50 [4]: 200 nM

SMILES: Nc1ccc2sc(NC(=O)c3sc4ccccc4c3Cl)nc2c1
IC50 [17]: 4000 nM
IC50 [2]: 40 nM

IC50 [18]: 25 nM
SMILES: COc1ccc(-c2nc3cc(F)ccc3s2)cc1OC

IC50 [19]: 4800 nM
SMILES: O=C(NO)c1ccc(S(=O)(=O)N2CCN(c3nc4ccccc4s3)CC2)cc1
IC50 [20]: 1630 nM
IC50 [21]: 4000 nM

SMILES: Cc1ccc2nc(N/N=C/c3cccnc3Nc3ccc(Cl)cc3)sc2c1
IC50 [2]: 1030 nM

SMILES: O=C(Nc1nc2ccc([N+](=O)[O-])cc2s1)c1ccc(C(F)(F)F)cc1
GI50 [3]: 860 nM
GI50 [4]: 860 nM
GI50 [5]: 860 nM

IC50 [22]: 490 nM
SMILES: CCCC(Sc1nc2cc(Cl)ccc2s1)C(=O)NS(=O)(=O)c1ccc(OC)cc1 (configuration not stated)

SMILES: Cc1ccc(Nn2c(SCC(=O)Nc3nc4ccc(C)cc4s3)nc(C)c2C)cc1
IC50 [1]: 26.3 µg/mL (≈ 60.2 µM)

IC50 [25]: 0.82 nM
SMILES: CCN1CCN(Cc2ccc(NC(=O)Nc3nc4ccc(Oc5ccnc(C(=O)NC)c5)cc4s3)cc2C(F)(F)F)CC1
GI50 [23]: 51.4 nM
GI50 [24]: 19 nM

EC50 [15]: 410 nM
SMILES: C=CCc1cccc(/C=N/NC(=O)CN2CCN(Cc3ccccc3)CC2)c1O [PAC-1]

SMILES: Cc1nc(SCC(=O)Nc2nc3ccc(F)cc3s2)n(Nc2ccc([N+](=O)[O-])cc2)c1C
IC50 [1]: > 500 µg/mL

GI50 [16]: 200 nM
GI50 [6]: 200 nM
SMILES: O=C(CN1CCN(c2ccccc2F)CC1)Nc1ccc(-c2nc3ccccc3s2)cc1
GI50 [4]: 200 nM

SMILES: Cc1cc(C)c2sc(NC(=O)c3ccc(C(F)(F)F)cc3)nc2c1
GI50 [3]: 290 nM
GI50 [4]: 290 nM
GI50 [5]: 290 nM

SMILES: COc1ccc2nc(NC(=O)CSc3nc(C)c(C)n3Nc3ccc([N+](=O)[O-])cc3)sc2c1
IC50 [26]: > 500 µg/mL
IC50 [1]: > 500 µg/mL
